ChEMBL document CHEMBL1153245, “A profile of the in vitro anti-tumor activity of imidazolium-based ionic liquids” (2010)

Key:
Assay type in all cases: functional
NCI-H23 = test: Anticancer activity against human NCI-H23 cells after 48 hrs by sulforhodamine B assay; details: Homo sapiens, NCI-H23, 48 h; for CC50: read-out: LC50 (the source's name)
[1] = Anticancer activity against human […] cells after 48 hrs by sulforhodamine B assay; details: Homo sapiens, RPMI8266, 48 h; for CC50: read-out: LC50 (the source's name)
SW-620 = test: Anticancer activity against human SW620 cells after 48 hrs by sulforhodamine B assay; details: Homo sapiens, SW-620, 48 h
[2] = Anticancer activity against human Hs 578T cells after 48 hrs by sulforhodamine B assay; details: Homo sapiens, Hs-578T, 48 h; for CC50: read-out: LC50 (the source's name)
SK-OV-3 = test: Anticancer activity against human SKOV3 cells after 48 hrs by sulforhodamine B assay; details: for CC50: read-out: LC50 (the source's name)
SNB-19 = test: Anticancer activity against human SNB19 cells after 48 hrs by sulforhodamine B assay; details: for CC50: read-out: LC50 (the source's name)
SN12C = test: Anticancer activity against human SN12C cells after 48 hrs by sulforhodamine B assay; details: Homo sapiens, SN12C, 48 h
K562 = test: Anticancer activity against human K562 cells after 48 hrs by sulforhodamine B assay; details: for CC50: read-out: LC50 (the source's name)
MDA-MB-435 = test: Anticancer activity against human MDA-MB-435 cells after 48 hrs by sulforhodamine B assay; details: Homo sapiens, MDA-MB-435, 48 h; for CC50: read-out: LC50 (the source's name)
NCI-H226 = test: Anticancer activity against human NCI-H226 cells after 48 hrs by sulforhodamine B assay; details: Homo sapiens, NCI-H226, 48 h
PC-3 = test: Anticancer activity against human PC3 cells after 48 hrs by sulforhodamine B assay; details: Homo sapiens, PC-3, 48 h; for CC50: read-out: LC50 (the source's name)
SK-MEL-5 = test: Anticancer activity against human SK-MEL-5 cells after 48 hrs by sulforhodamine B assay; details: Homo sapiens, SK-MEL-5, 48 h; for CC50: read-out: LC50 (the source's name)
ACHN = test: Anticancer activity against human ACHN cells after 48 hrs by sulforhodamine B assay
HCC 2998 = test: Anticancer activity against human HCC2998 cells after 48 hrs by sulforhodamine B assay; details: Homo sapiens, HCC 2998, 48 h; for CC50: read-out: LC50 (the source's name)
T47D = test: Anticancer activity against human T47D cells after 48 hrs by sulforhodamine B assay; details: Homo sapiens, T47D, 48 h; for CC50: read-out: LC50 (the source's name)
SF-268 = test: Anticancer activity against human SF268 cells after 48 hrs by sulforhodamine B assay; details: Homo sapiens, SF-268, 48 h; for CC50: read-out: LC50 (the source's name)
SF-295 = test: Anticancer activity against human SF295 cells after 48 hrs by sulforhodamine B assay; details: Homo sapiens, SF-295, 48 h; for CC50: read-out: LC50 (the source's name)
SF-539 = test: Anticancer activity against human SF539 cells after 48 hrs by sulforhodamine B assay; details: Homo sapiens, SF-539, 48 h
DU-145 = test: Anticancer activity against human DU145 cells after 48 hrs by sulforhodamine B assay; details: Homo sapiens, DU-145, 48 h; for CC50: read-out: LC50 (the source's name)
IGROV-1 = test: Anticancer activity against human IGROV1 cells after 48 hrs by sulforhodamine B assay; details: IGROV-1, 48 h; for CC50: read-out: LC50 (the source's name)
SNB-75 = test: Anticancer activity against human SNB75 cells after 48 hrs by sulforhodamine B assay; details: for CC50: read-out: LC50 (the source's name)
Malme-3M = test: Anticancer activity against human MALME-3M cells after 48 hrs by sulforhodamine B assay
RXF 393 = test: Anticancer activity against human RXF393 cells after 48 hrs by sulforhodamine B assay; details: Homo sapiens, RXF 393, 48 h
SK-MEL-28 = test: Anticancer activity against human SK-MEL-28 cells after 48 hrs by sulforhodamine B assay; details: Homo sapiens, SK-MEL-28, 48 h
HL-60(TB) = test: Anticancer activity against human HL-60(TB) cells after 48 hrs by sulforhodamine B assay; details: for CC50: read-out: LC50 (the source's name)
HT-29 = test: Anticancer activity against human HT-29 cells after 48 hrs by sulforhodamine B assay; details: for CC50: read-out: LC50 (the source's name)
EKVX = test: Anticancer activity against human EKVX cells after 48 hrs by sulforhodamine B assay; details: Homo sapiens, EKVX, 48 h; for CC50: read-out: LC50 (the source's name)
A498 = test: Anticancer activity against human A498 cells after 48 hrs by sulforhodamine B assay; details: Homo sapiens, A498, 48 h; for CC50: read-out: LC50 (the source's name)
NCI-H460 = test: Anticancer activity against human NCI-H460 cells after 48 hrs by sulforhodamine B assay; details: Homo sapiens, NCI-H460, 48 h
CCRF-CEM = test: Anticancer activity against human CCRF-CEM cells after 48 hrs by sulforhodamine B assay; details: Homo sapiens, CCRF-CEM, 48 h
U-251 = test: Anticancer activity against human U251 cells after 48 hrs by sulforhodamine B assay; details: Homo sapiens, U-251, 48 h; for CC50: read-out: LC50 (the source's name)
MOLT-4 = test: Anticancer activity against human MOLT4 cells after 48 hrs by sulforhodamine B assay

CCCCCCCCCCCCCCCC[n+]1ccn(C)c1.[Cl-]
GI50 (NCI-H23): 504 nM | CC50 (NCI-H23): > 100000 nM | GI50 [1]: 240 nM | CC50 [1]: 764 nM | GI50 (SW-620): 461 nM | GI50 [2]: 538 nM | CC50 [2]: 6110 nM | GI50 (SK-OV-3; Homo sapiens, SK-OV-3, 48 h): 1270 nM | CC50 (SK-OV-3; Homo sapiens, SK-OV-3, 48 h): > 100000 nM | GI50 (SNB-19; Homo sapiens, SNB-19, 48 h): 1220 nM | CC50 (SNB-19; Homo sapiens, SNB-19, 48 h): 9590 nM | GI50 (SN12C): 1000 nM | GI50 (K562; Homo sapiens, K562, 48 h): 190 nM | CC50 (K562; Homo sapiens, K562, 48 h): 3490 nM | GI50 (MDA-MB-435): 482 nM | CC50 (MDA-MB-435): 6980 nM | GI50 (NCI-H226): 861 nM | GI50 (PC-3): 268 nM | CC50 (PC-3): 3860 nM | GI50 (SK-MEL-5): 461 nM | CC50 (SK-MEL-5): 4190 nM | GI50 (ACHN; Homo sapiens, ACHN, 48 h): 832 nM | GI50 (HCC 2998): 192 nM | CC50 (HCC 2998): 7290 nM | GI50 (T47D): 564 nM | CC50 (T47D): > 100000 nM | GI50 (SF-268): 1020 nM | CC50 (SF-268): 4930 nM | GI50 (SF-295): 383 nM | CC50 (SF-295): 5020 nM | GI50 (SF-539): 1340 nM | GI50 (DU-145): 719 nM | CC50 (DU-145): 4480 nM | GI50 (IGROV-1): 48 nM | CC50 (IGROV-1): > 100000 nM | GI50 (SNB-75; Homo sapiens, SNB-75, 48 h): 555 nM | CC50 (SNB-75; Homo sapiens, SNB-75, 48 h): 5650 nM | GI50 (Malme-3M; Homo sapiens, Malme-3M, 48 h): 549 nM | GI50 (RXF 393): 379 nM | GI50 (SK-MEL-28): 948 nM | GI50 (HL-60(TB); Homo sapiens, HL-60, 48 h): 131 nM | CC50 (HL-60(TB); Homo sapiens, HL-60, 48 h): 816 nM | GI50 (HT-29; Homo sapiens, HT-29, 48 h): 311 nM | CC50 (HT-29; Homo sapiens, HT-29, 48 h): 5060 nM | GI50 (EKVX): 358 nM | CC50 (EKVX): 6770 nM | GI50 (A498): 1110 nM | CC50 (A498): 7390 nM | GI50 (NCI-H460): 498 nM | GI50 (CCRF-CEM): 164 nM | GI50 (U-251): 334 nM | CC50 (U-251): 3870 nM | GI50 (MOLT-4; Homo sapiens, MOLT-4, 48 h): 306 nM

CCCCCCCCCCCCCCCCCC[n+]1ccn(C)c1.[Cl-]
GI50 (NCI-H23): 392 nM | CC50 (NCI-H23): 7720 nM | GI50 [1]: 27 nM | CC50 [1]: 1210 nM | GI50 (SW-620): 446 nM | LC50 (SW-620): 4720 nM | GI50 [2]: 335 nM | CC50 [2]: 6310 nM | GI50 (SK-OV-3; Homo sapiens, SK-OV-3, 48 h): 1240 nM | CC50 (SK-OV-3): > 100000 nM | GI50 (SNB-19; Homo sapiens, SNB-19, 48 h): 1220 nM | CC50 (SNB-19): > 100000 nM | GI50 (SN12C): 679 nM | LC50 (SN12C): 4770 nM | GI50 (K562): 385 nM | CC50 (K562; Homo sapiens, K562, 48 h): > 100000 nM | GI50 (MDA-MB-435): 684 nM | CC50 (MDA-MB-435): 7960 nM | GI50 (NCI-H226): 869 nM | LC50 (NCI-H226): 5990 nM | GI50 (PC-3): 212 nM | CC50 (PC-3): 2850 nM | GI50 (SK-MEL-5): 414 nM | CC50 (SK-MEL-5): 3970 nM | GI50 (ACHN): 446 nM | LC50 (ACHN; Homo sapiens, ACHN, 48 h): 4230 nM | GI50 (HCC 2998): 296 nM | CC50 (HCC 2998): 7770 nM | GI50 (T47D): 546 nM | CC50 (T47D): > 100000 nM | GI50 (SF-268): 978 nM | CC50 (SF-268): 5880 nM | GI50 (SF-295): 332 nM | CC50 (SF-295): 5590 nM | GI50 (DU-145): 635 nM | CC50 (DU-145): 4400 nM | GI50 (IGROV-1): 175 nM | CC50 (IGROV-1): > 100000 nM | GI50 (SNB-75): 473 nM | CC50 (SNB-75; Homo sapiens, SNB-75, 48 h): 7400 nM | GI50 (Malme-3M): 368 nM | LC50 (concentration killing 50% of cells) (Malme-3M; Homo sapiens, Malme-3M, 48 h): 5820 nM | GI50 (RXF 393): 265 nM | LC50 (RXF 393): 4900 nM | GI50 (SK-MEL-28): 879 nM | LC50 (SK-MEL-28): 5750 nM | GI50 (HL-60(TB); Homo sapiens, HL-60, 48 h): 143 nM | CC50 (HL-60(TB)): 791 nM | GI50 (HT-29; Homo sapiens, HT-29, 48 h): 315 nM | CC50 (HT-29): 5520 nM | GI50 (EKVX): 649 nM | CC50 (EKVX): 7780 nM | GI50 (A498): 1070 nM | CC50 (A498): 8940 nM | GI50 (NCI-H460): 405 nM | LC50 (NCI-H460): 3920 nM | GI50 (CCRF-CEM): 127 nM | LC50 (CCRF-CEM): 720 nM | GI50 (U-251): 372 nM | CC50 (U-251): 3880 nM | GI50 (MOLT-4): 189 nM | LC50 (MOLT-4): 2160 nM
